Assay results taken from PubChem BioAssay (NCI).
Values joined by “and” are separate entries in the source; they are usually repeats but may differ in a detail not shown here. Identical values can stand only once.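 Assay format: 96-well plates, 48-hour exposure. Here, GI50 denotes the concentration required for 50% inhibition of growth. TGI is the concentration that stops growth completely.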

Experiments:
Experiment in all cases: NCI tumour cell line growth inhibition, 48 h
[1] = tested on: DLD-1 colon
[2] = tested on: HOP-18 NSCLC
[3] = tested on: KM20L2 colon
[4] = tested on: LXFL 529 NSCLC
[5] = tested on: M19-MEL melanoma
[6] = tested on: SNB-78 CNS
[7] = tested on: XF 498 CNS
[8] = tested on: DMS 114 small cell lung
[9] = tested on: P388 leukemia
[10] = tested on: P388/ADR leukemia
[11] = tested on: SN12K1 renal
[12] = tested on: RXF-631 renal

SMILES: CCCCn1c(-c2ccccc2)cs/c1=N\NC(=O)Cn1c(C)nc2ccccc21
- TGI [1]: > 100 µM
- TGI [2]: > 100 µM
- TGI [3]: > 100 µM
- TGI [4]: > 100 µM
- TGI [5]: > 100 µM
- TGI [6]: > 100 µM
- TGI [7]: > 100 µM

SMILES: CSCSCC(CO)NC(=O)/C=C\c1c(C)[nH]c(=O)[nH]c1=O (centres undefined)
- TGI [1]: 160 µM
- TGI [8]: 66.5 µM
- TGI [2]: 267 µM
- TGI [3]: 129 µM
- TGI [5]: 111 µM
- TGI [9]: 164 µM
- TGI [10]: 332 µM
- TGI [11]: 84.9 µM
- GI50 [6]: 30.9 µM
- TGI [6]: 260 µM
- TGI [7]: 9.99 µM

SMILES: O=C(O)C12C=CC(C1)c1ccccc12 (centres undefined)
- TGI [1]: > 100 µM
- TGI [8]: > 100 µM
- TGI [2]: > 100 µM
- TGI [3]: > 100 µM
- TGI [4]: > 100 µM
- TGI [5]: > 100 µM

SMILES: CC(C)(C1=NC(C(C)(C)C)CO1)C1=N[C@@H](C(C)(C)C)CO1 (some centres undefined)
- TGI [1]: > 100 µM
- TGI [8]: > 100 µM
- TGI [2]: > 100 µM
- TGI [3]: > 100 µM
- TGI [4]: > 100 µM
- TGI [5]: > 100 µM
- TGI [7]: > 100 µM

SMILES: Cc1c2cc[n+](C)cc2c(C)c2c1[nH]c1ccc(OCC(F)(F)F)cc12
- TGI [1]: > 100 µM
- TGI [8]: > 21.6 µM
- TGI [2]: 23.4 µM and > 100 µM
- TGI [3]: > 100 µM
- TGI [4]: 6.5 µM
- TGI [5]: > 24.5 µM
- TGI [6]: > 100 µM

SMILES: c1ccc(C2N=C(c3ccccn3)C(c3ccccn3)=NC2c2ccccc2)cc1 (centres undefined)
- TGI [1]: > 100 µM
- TGI [8]: > 100 µM
- TGI [2]: > 100 µM
- TGI [3]: > 100 µM
- TGI [4]: > 100 µM
- TGI [5]: > 100 µM
- TGI [6]: > 100 µM
- TGI [7]: > 100 µM

SMILES: C=C1C(=O)OC2C[C@@]3(C)CCCC(=C)C3CC12 (some centres undefined)
- TGI [1]: 14.7 µM
- TGI [8]: 29.8 µM
- TGI [2]: 31.3 µM
- TGI [3]: 25.9 µM
- TGI [4]: 11.8 µM
- TGI [6]: 13.5 µM
- TGI [7]: 13.5 µM

SMILES: COC(=O)c1c(CC(=O)OC(C)C)cc2n(c1=O)Cc1c-2nc2ccccc2c1OC
- TGI [1]: > 100 µM
- TGI [8]: > 100 µM
- TGI [2]: > 100 µM
- TGI [3]: > 100 µM
- TGI [4]: > 100 µM
- TGI [5]: > 100 µM
- TGI [7]: > 100 µM

SMILES: Cc1ccc(N2Cc3c(ccc4ccccc34)OP2(=S)N2CCCC2)cc1 (centres undefined)
- TGI [1]: > 100 µM
- TGI [2]: > 100 µM
- TGI [3]: > 100 µM
- TGI [5]: > 100 µM
- TGI [9]: 47.9 µM
- TGI [10]: > 100 µM
- TGI [11]: > 100 µM
- TGI [6]: > 100 µM
- TGI [7]: > 100 µM

SMILES: C/C(N=NS(=O)(=O)c1c(C)cc(C)cc1C)=C1\C=CC=CN1O
- TGI [1]: > 100 µM
- TGI [8]: > 100 µM
- TGI [2]: > 100 µM
- TGI [3]: > 100 µM
- TGI [4]: > 100 µM
- TGI [5]: > 100 µM
- TGI [6]: > 100 µM
- TGI [7]: > 100 µM

SMILES: O=c1[nH]c(=S)[nH]c2c1CCCN2
- TGI [1]: > 100 µM
- TGI [8]: > 100 µM
- TGI [2]: > 100 µM
- TGI [4]: > 100 µM
- TGI [5]: > 100 µM
- TGI [12]: > 100 µM
- TGI [6]: > 100 µM

SMILES: O=Cn1c2ccccc2c2ccccc21
- TGI [1]: > 100 µM
- TGI [8]: > 100 µM
- TGI [2]: > 100 µM
- TGI [3]: > 100 µM
- TGI [4]: > 100 µM
- TGI [5]: > 100 µM
- TGI [6]: > 100 µM
- TGI [7]: > 100 µM

SMILES: C/C(=N/NC(N)=S)C(CN1CCOCC1)C(C1=C(O)c2ccccc2OC1)c1ccccc1 (centres undefined)
- TGI [1]: > 100 µM
- TGI [2]: > 100 µM
- TGI [3]: > 100 µM
- TGI [4]: > 100 µM
- TGI [5]: > 100 µM
- TGI [6]: > 100 µM
- TGI [7]: > 100 µM

SMILES: CC(C)=CC(=O)OC1C2C(C)=CC(=O)C(O)C2(C)C2C3(O)OCC24C(CC(=O)OC14)C(C)C3O (centres undefined)
- TGI [1]: 0.221 µM and 0.554 µM
- GI50 [2]: 0.192 µM and 0.0777 µM
- TGI [2]: 0.689 µM and 0.493 µM
- TGI [3]: 0.197 µM and 0.153 µM
- TGI [5]: 0.0252 µM and 0.027 µM
- TGI [9]: 0.00568 µM
- GI50 [10]: 0.181 µM
- TGI [10]: 0.575 µM and 0.84 µM
- GI50 [11]: 0.00412 µM
- TGI [11]: 0.0169 µM and 0.0213 µM
- GI50 [6]: 0.0575 µM
- TGI [6]: 0.36 µM and 0.153 µM
- GI50 [7]: 0.00543 µM
- TGI [7]: 0.0217 µM and 0.0556 µM

SMILES: CCN(CC)CC[n+]1ccc2c(C)c3[nH]c4ccccc4c3c(C)c2c1
- TGI [1]: 13.5 µM and 14.6 µM
- GI50 [2]: 0.901 µM and 1.91 µM
- TGI [2]: 4.82 µM and 7.88 µM
- GI50 [3]: 0.27 µM and 0.782 µM
- TGI [3]: 1.51 µM and 6.24 µM
- TGI [5]: 0.762 µM and 2 µM
- GI50 [9]: 0.0448 µM and 0.024 µM
- TGI [9]: 1.41 µM and 4.27 µM
- TGI [10]: > 100 µM and 125 µM
- GI50 [11]: 0.268 µM
- TGI [11]: 1.18 µM and 1.8 µM
- GI50 [6]: 0.293 µM and 1.17 µM
- TGI [6]: 1.49 µM and 7.14 µM

SMILES: NCCCNCCSP(=O)(O)O
- TGI [1]: > 750 µM
- TGI [8]: > 750 µM
- TGI [2]: > 750 µM
- TGI [3]: > 750 µM
- TGI [5]: > 750 µM
- TGI [9]: > 750 µM
- TGI [10]: > 750 µM
- TGI [11]: > 750 µM
- TGI [6]: > 750 µM
- TGI [7]: > 422 µM

SMILES: COC(=O)CCC(NC(=S)N/N=C(\C)c1cccs1)C(=O)OC (centres undefined)
- TGI [1]: > 100 µM
- TGI [8]: > 100 µM
- TGI [2]: > 100 µM
- TGI [3]: > 100 µM
- TGI [4]: > 100 µM
- TGI [5]: > 100 µM
- TGI [6]: > 100 µM
- TGI [7]: > 100 µM
